Tests used:
Type in all cases: cell-based
[1] = tested on: four cancer cell lines (A-549, MCF-7, Panc-1, HT-29); experiment: Antiproliferative assay, average over four cancer cell lines; conditions: Homo sapiens; average of the four cancer cell lines; read-out: Average IC50 (GI50)
Excerpt: Table 2 presents the four cancer cell lines’ median inhibitory concentration (IC50) and GI50 (average IC50) values.
The IC50 values were derived from dose-response tests. The reported data are derived from at least two independent studies, each comprising three replicates per concentration. See Supplementary Material A1 for more details.

HCT-116 = experiment: NCI-60 single-dose screen; conditions: Homo sapiens, single dose 10 µM, '-' = no inhibition, read-out: % Growth Inhibition
Protocol: (§1) The National Cancer Institute’s Developmental Therapeutic Program (www.dtp.nci.nih.gov) has tested compounds 9–29 (except compounds 21 and 22) against 60 cancer cell lines from nine types (leukemia, lung, colon, CNS, melanoma, ovarian, renal, prostate, and breast cancer) at a single dose (10 μM) ([El-Sherief et al., 2018]). […] The most sensitive cells included leukemia (SR, K-562, and MOLT-4), lung (NCI-H522, […], and EKVX), breast (MCF-7 and T-47D), colon (HCT-15 and HT-29), and ovarian (NCI/ADR-RES).
(§2) The National Cancer Institute’s Developmental Therapeutic Program (www.dtp.nci.nih.gov) evaluated compounds 9–29 (excluding 21 and 22) against 60 cancer cell lines from nine categories (leukemia, lung, colon, CNS, melanoma, ovarian, renal, prostate, and breast cancer) at a single dose (10 μM) ([El-Sherief et al., 2018]). See Supplementary Material A1 for more details.

MDA-MB-468 = experiment: NCI-60 single-dose screen; conditions: Homo sapiens, single dose 10 µM, '-' = no inhibition, read-out: % Growth Inhibition
Protocol: as §1, §2

786-0 = experiment: NCI-60 single-dose screen; conditions: Homo sapiens, single dose 10 µM, '-' = no inhibition, read-out: % Growth Inhibition
Protocol: as §1, §2

OVCAR-3 = experiment: NCI-60 single-dose screen; conditions: Homo sapiens, single dose 10 µM, '-' = no inhibition, read-out: % Growth Inhibition
Protocol: as §1, §2

TK-10 = experiment: NCI-60 single-dose screen; conditions: Homo sapiens, single dose 10 µM, '-' = no inhibition, read-out: % Growth Inhibition
Protocol: as §1, §2

OVCAR-8 = experiment: NCI-60 single-dose screen; conditions: Homo sapiens, single dose 10 µM, '-' = no inhibition, read-out: % Growth Inhibition
Protocol: as §1, §2

SF-268 = experiment: NCI-60 single-dose screen; conditions: Homo sapiens, single dose 10 µM, '-' = no inhibition, read-out: % Growth Inhibition
Protocol: as §1, §2

OVCAR-5 = experiment: NCI-60 single-dose screen; conditions: Homo sapiens, single dose 10 µM, '-' = no inhibition, read-out: % Growth Inhibition
Protocol: as §1, §2

HL-60(TB) = experiment: NCI-60 single-dose screen; conditions: Homo sapiens, single dose 10 µM, '-' = no inhibition, read-out: % Growth Inhibition
Protocol: as §1, §2

ACHN 1 = experiment: NCI-60 single-dose screen; conditions: Homo sapiens, single dose 10 µM, '-' = no inhibition, read-out: % Growth Inhibition
Protocol: as §1, §2

SR = experiment: NCI-60 single-dose screen; conditions: Homo sapiens, single dose 10 µM, '-' = no inhibition, read-out: % Growth Inhibition
Protocol: as §1, §2

MDA-MB231/ATCC = experiment: NCI-60 single-dose screen; conditions: Homo sapiens, MDA-MB-231, single dose 10 µM, '-' = no inhibition, read-out: % Growth Inhibition
Protocol: as §1, §2

U251 = experiment: NCI-60 single-dose screen; conditions: Homo sapiens, U-251, single dose 10 µM, '-' = no inhibition, read-out: % Growth Inhibition
Protocol: as §1, §2

A549/ATCC = experiment: NCI-60 single-dose screen; conditions: Homo sapiens, single dose 10 µM, '-' = no inhibition, read-out: % Growth Inhibition
Protocol: as §1, §2

NCI-H460 = experiment: NCI-60 single-dose screen; conditions: Homo sapiens, single dose 10 µM, '-' = no inhibition, read-out: % Growth Inhibition
Protocol: as §1, §2

HOP-92 = experiment: NCI-60 single-dose screen; conditions: Homo sapiens, single dose 10 µM, '-' = no inhibition, read-out: % Growth Inhibition
Protocol: as §1, §2

IGROV1 = experiment: NCI-60 single-dose screen; conditions: Homo sapiens, IGROV-1, single dose 10 µM, '-' = no inhibition, read-out: % Growth Inhibition
Protocol: as §1, §2

NCI-H322M = experiment: NCI-60 single-dose screen; conditions: Homo sapiens, single dose 10 µM, '-' = no inhibition, read-out: % Growth Inhibition
Protocol: as §1, §2

NCI-H522 = experiment: NCI-60 single-dose screen; conditions: Homo sapiens, single dose 10 µM, '-' = no inhibition, read-out: % Growth Inhibition
Protocol: as §1, §2

PC-3 = experiment: NCI-60 single-dose screen; conditions: Homo sapiens, single dose 10 µM, '-' = no inhibition, read-out: % Growth Inhibition
Protocol: as §1, §2

SK-MEL-5 = experiment: NCI-60 single-dose screen; conditions: Homo sapiens, single dose 10 µM, '-' = no inhibition, read-out: % Growth Inhibition
Protocol: as §1, §2

HT29 = experiment: NCI-60 single-dose screen; conditions: Homo sapiens, HT-29, single dose 10 µM, '-' = no inhibition, read-out: % Growth Inhibition
Protocol: as §1, §2

SK-MEL-28 = experiment: NCI-60 single-dose screen; conditions: Homo sapiens, single dose 10 µM, '-' = no inhibition, read-out: % Growth Inhibition
Protocol: as §1, §2

UACC-257 = experiment: NCI-60 single-dose screen; conditions: Homo sapiens, single dose 10 µM, '-' = no inhibition, read-out: % Growth Inhibition
Protocol: as §1, §2

NCI/ADR-RES = experiment: NCI-60 single-dose screen; conditions: Homo sapiens, single dose 10 µM, '-' = no inhibition, read-out: % Growth Inhibition
Protocol: as §1, §2

OVCAR-4 = experiment: NCI-60 single-dose screen; conditions: Homo sapiens, single dose 10 µM, '-' = no inhibition, read-out: % Growth Inhibition
Protocol: as §1, §2

SN12C = experiment: NCI-60 single-dose screen; conditions: Homo sapiens, single dose 10 µM, '-' = no inhibition, read-out: % Growth Inhibition
Protocol: as §1, §2

NCI-H23 = experiment: NCI-60 single-dose screen; conditions: Homo sapiens, single dose 10 µM, '-' = no inhibition, read-out: % Growth Inhibition
Protocol: as §1, §2

UO-31 = experiment: NCI-60 single-dose screen; conditions: Homo sapiens, single dose 10 µM, '-' = no inhibition, read-out: % Growth Inhibition
Protocol: as §1, §2

DU-145 = experiment: NCI-60 single-dose screen; conditions: Homo sapiens, single dose 10 µM, '-' = no inhibition, read-out: % Growth Inhibition
Protocol: as §1, §2

SK-MEL-2 = experiment: NCI-60 single-dose screen; conditions: Homo sapiens, single dose 10 µM, '-' = no inhibition, read-out: % Growth Inhibition
Protocol: as §1, §2

HS 578T = experiment: NCI-60 single-dose screen; conditions: Homo sapiens, single dose 10 µM, '-' = no inhibition, read-out: % Growth Inhibition
Protocol: as §1, §2

BT-549 = experiment: NCI-60 single-dose screen; conditions: Homo sapiens, single dose 10 µM, '-' = no inhibition, read-out: % Growth Inhibition
Protocol: as §1, §2

SK-OV-3 = experiment: NCI-60 single-dose screen; conditions: Homo sapiens, single dose 10 µM, '-' = no inhibition, read-out: % Growth Inhibition
Protocol: as §1, §2

SF-539 = experiment: NCI-60 single-dose screen; conditions: Homo sapiens, single dose 10 µM, '-' = no inhibition, read-out: % Growth Inhibition
Protocol: as §1, §2

HCC-2998 = experiment: NCI-60 single-dose screen; conditions: Homo sapiens, single dose 10 µM, '-' = no inhibition, read-out: % Growth Inhibition
Protocol: as §1, §2

K-562 = experiment: NCI-60 single-dose screen; conditions: Homo sapiens, K562, single dose 10 µM, '-' = no inhibition, read-out: % Growth Inhibition
Protocol: as §1, §2

UACC-62 = experiment: NCI-60 single-dose screen; conditions: Homo sapiens, single dose 10 µM, '-' = no inhibition, read-out: % Growth Inhibition
Protocol: as §1, §2

CAKI-1 = experiment: NCI-60 single-dose screen; conditions: Homo sapiens, single dose 10 µM, '-' = no inhibition, read-out: % Growth Inhibition
Protocol: as §1, §2

RPMI-8226 = experiment: NCI-60 single-dose screen; conditions: Homo sapiens, single dose 10 µM, '-' = no inhibition, read-out: % Growth Inhibition
Protocol: as §1, §2

RXF 393 = experiment: NCI-60 single-dose screen; conditions: Homo sapiens, single dose 10 µM, '-' = no inhibition, read-out: % Growth Inhibition
Protocol: as §1, §2

COLO 205 = experiment: NCI-60 single-dose screen; conditions: Homo sapiens, single dose 10 µM, '-' = no inhibition, read-out: % Growth Inhibition
Protocol: as §1, §2

SNB-19 = experiment: NCI-60 single-dose screen; conditions: Homo sapiens, single dose 10 µM, '-' = no inhibition, read-out: % Growth Inhibition
Protocol: as §1, §2

## COc1ccc(-c2cc(-c3cccc(OC)c3)nc(SC)n2)cc1 [Compound 16, 6-(3-Methoxyphenyl)-4-(4-methoxyphenyl)-2-(methylthio)pyrimidine]
[1]
  IC50: 86 nM
HCT-116
  inhibition at 10 µM: 17.3%
MDA-MB-468
  inhibition at 10 µM: 17.4%
786-0
  inhibition at 10 µM: < 0%
OVCAR-3
  inhibition at 10 µM: < 0%
TK-10
  inhibition at 10 µM: < 0%
OVCAR-8
  inhibition at 10 µM: 6.48%
SF-268
  inhibition at 10 µM: 15.7%
OVCAR-5
  inhibition at 10 µM: < 0%
HL-60(TB)
  inhibition at 10 µM: 22.2%
ACHN 1
  inhibition at 10 µM: < 0%
SR
  inhibition at 10 µM: 27.7%
MDA-MB231/ATCC
  inhibition at 10 µM: 11%
U251
  inhibition at 10 µM: 10.7%
A549/ATCC
  inhibition at 10 µM: 13%
NCI-H460
  inhibition at 10 µM: 1.75%
HOP-92
  inhibition at 10 µM: 1.87%
IGROV1
  inhibition at 10 µM: < 0%
NCI-H322M
  inhibition at 10 µM: < 0%
NCI-H522
  inhibition at 10 µM: 14.1%
PC-3
  inhibition at 10 µM: 16.6%
SK-MEL-5
  inhibition at 10 µM: 6.46%
HT29
  inhibition at 10 µM: 26.2%
SK-MEL-28
  inhibition at 10 µM: < 0%
UACC-257
  inhibition at 10 µM: < 0%
NCI/ADR-RES
  inhibition at 10 µM: 11.6%
OVCAR-4
  inhibition at 10 µM: 8.29%
SN12C
  inhibition at 10 µM: 17.9%
NCI-H23
  inhibition at 10 µM: 2.58%
UO-31
  inhibition at 10 µM: 20%
DU-145
  inhibition at 10 µM: 6.56%
SK-MEL-2
  inhibition at 10 µM: 2.91%
HS 578T
  inhibition at 10 µM: 5.45%
BT-549
  inhibition at 10 µM: 3.3%
SK-OV-3
  inhibition at 10 µM: 13.7%
SF-539
  inhibition at 10 µM: < 0%
HCC-2998
  inhibition at 10 µM: < 0%
K-562
  inhibition at 10 µM: 26.9%
UACC-62
  inhibition at 10 µM: 23.9%
CAKI-1
  inhibition at 10 µM: 20.8%
RPMI-8226
  inhibition at 10 µM: 3.81%
RXF 393
  inhibition at 10 µM: 11.6%
COLO 205
  inhibition at 10 µM: < 0%
SNB-19
  inhibition at 10 µM: < 0%

## CCCSc1nc(-c2ccc(OC)cc2)cc(-c2cccc(OC)c2)n1 [Compound 18, 6-(3-Methoxyphenyl)-4-(4-methoxyphenyl)-2-(propylthio)pyrimidine]
[1]
  IC50: 45 nM
HCT-116
  inhibition at 10 µM: 3.37%
MDA-MB-468
  inhibition at 10 µM: < 0%
786-0
  inhibition at 10 µM: < 0%
OVCAR-3
  inhibition at 10 µM: < 0%
TK-10
  inhibition at 10 µM: < 0%
OVCAR-8
  inhibition at 10 µM: < 0%
SF-268
  inhibition at 10 µM: < 0%
OVCAR-5
  inhibition at 10 µM: < 0%
HL-60(TB)
  inhibition at 10 µM: 20.3%
ACHN 1
  inhibition at 10 µM: < 0%
SR
  inhibition at 10 µM: 14.9%
MDA-MB231/ATCC
  inhibition at 10 µM: < 0%
U251
  inhibition at 10 µM: < 0%
A549/ATCC
  inhibition at 10 µM: 7.77%
NCI-H460
  inhibition at 10 µM: < 0%
HOP-92
  inhibition at 10 µM: < 0%
IGROV1
  inhibition at 10 µM: < 0%
NCI-H322M
  inhibition at 10 µM: < 0%
NCI-H522
  inhibition at 10 µM: < 0%
PC-3
  inhibition at 10 µM: < 0%
SK-MEL-5
  inhibition at 10 µM: 3.1%
HT29
  inhibition at 10 µM: 4.83%
SK-MEL-28
  inhibition at 10 µM: < 0%
UACC-257
  inhibition at 10 µM: < 0%
NCI/ADR-RES
  inhibition at 10 µM: < 0%
OVCAR-4
  inhibition at 10 µM: 3.94%
SN12C
  inhibition at 10 µM: < 0%
NCI-H23
  inhibition at 10 µM: < 0%
UO-31
  inhibition at 10 µM: < 0%
DU-145
  inhibition at 10 µM: < 0%
SK-MEL-2
  inhibition at 10 µM: 3.6%
HS 578T
  inhibition at 10 µM: < 0%
BT-549
  inhibition at 10 µM: < 0%
SK-OV-3
  inhibition at 10 µM: < 0%
SF-539
  inhibition at 10 µM: < 0%
HCC-2998
  inhibition at 10 µM: < 0%
K-562
  inhibition at 10 µM: 12.8%
UACC-62
  inhibition at 10 µM: < 0%
CAKI-1
  inhibition at 10 µM: 4%
RPMI-8226
  inhibition at 10 µM: < 0%
RXF 393
  inhibition at 10 µM: < 0%
COLO 205
  inhibition at 10 µM: 0.86%
SNB-19
  inhibition at 10 µM: < 0%

— article PMC11576293, “New series of 4,6-diaryl pyrimidines: facile synthesis and antiproliferative activity as dual EGFR/VEGFR-2 inhibitors” (Frontiers in Chemistry, 2024)
